Data on 63 molecules can be found in patent US20160002247A1, “8-SUBSTITUTED IMIDAZOPYRIMIDINONE DERIVATIVE HAVING AUTOTAXIN INHIBITORY ACTIVITY” (THE UNIVERSITY OF TOKYO, priority 2013, published 2016).

The term IC50 denotes the point on the concentration scale where inhibition reaches its midpoint.

This experiment concerns the target T1, Human autotaxin enzyme (Homo sapiens, UniProt Q13822).
T1 construct: purchased R&D System
The experiment in a line: Evaluation of autotaxin inhibitor, Method C (Test Example 3): 18:0 Lyso PC, choline assay, Resorufin fluorescence. It is filed as biochemical. The following applies: Assay Method C (Test Example 3), human autotaxin, 18:0 Lyso PC substrate; read-out: Inhibitory Activity (autotaxin enzyme inhibitory activity, IC50 class). An outline of the steps:
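Human autotaxin in Tris-HCl pH 7.5, 150 mM NaCl, 5 mM MgCl2, 0.05% Triton X-100 reacted 2 h at room temperature with 18:0 Lyso PC (200 μM solution added). Released choline detected via choline oxidase/peroxidase/Amplex-type reagent, resorufin fluorescence (ex 531/em 598 nm); inhibition vs no-compound and no-enzyme controls, concentration-response curve.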
With `CCCCCn1c(OC2CN(C(=O)CN3CCOCC3)C2)cc(=O)n2cc(-c3ccc(Cl)cc3)nc12` [Compound 543], the IC50 was in the range of 10 to 100 nM.
For the molecule `CCCCCn1c(O[C@@H]2CO[C@H]3[C@@H]2OC[C@H]3O)cc(=O)n2cc(-c3ccc(Cl)cc3)nc12` [Compound 544], the 50% inhibitory concentration (IC50) is 100 to 1000 nM.
Turning to `CCCCCn1c(C2=CCN(C(C)=O)CC2)cc(=O)n2cc(-c3ccc(Cl)cc3)nc12` [Compound 546], the half-maximal inhibitory concentration (IC50) was in the range of 10 to 100 nM.
For `CCCCCn1c(C2=CCN(S(C)(=O)=O)CC2)cc(=O)n2cc(-c3ccc(Cl)cc3)nc12` [Compound 547] the value was 10 to 100 nM.
`CCCCCn1c(OC2CCN(CC(=O)N3CCOCC3)CC2)cc(=O)n2cc(-c3ccc(Cl)cc3)nc12` [Compound 548]: the IC50 fell in the range of 100 to 1000 nM.
`CCCCCn1c(O[C@H]2CCN(C(=O)OC(C)(C)C)C2)cc(=O)n2cc(-c3ccc(Cl)cc3)nc12` [Compound 549]: the IC50 fell in the range of 10 to 100 nM.
For `CCCCCn1c(O[C@@H]2CCN(C(=O)OC(C)(C)C)C2)cc(=O)n2cc(-c3ccc(Cl)cc3)nc12` [Compound 550] the value was 100 to 1000 nM; for `CCCCCn1c(O[C@H]2C[C@@H](NC(=O)OC(C)(C)C)C2)cc(=O)n2cc(-c3ccc(Cl)cc3)nc12` [Compound 551], 100 to 1000 nM.
As for `CCCCCn1c(O[C@H]2C[C@H](NC(=O)OC(C)(C)C)C2)cc(=O)n2cc(-c3ccc(Cl)cc3)nc12` [Compound 552], the IC50 lay in the range of 100 to 1000 nM.
For the molecule `CCCCCn1c(OCC2CCN(C(=O)OC(C)(C)C)C2)cc(=O)n2cc(-c3ccc(Cl)cc3)nc12` (stereo not drawn) [Compound 553], the half-maximal inhibitory concentration (IC50) fell in the range of 100 to 1000 nM.
For the molecule `CCCCCn1c(OCC2CCCN2C(=O)OC(C)(C)C)cc(=O)n2cc(-c3ccc(Cl)cc3)nc12` (stereo not drawn) [Compound 554], the IC50 is 100 to 1000 nM.
With `CCCCCn1c(OC[C@H]2CCCN2C(=O)OC(C)(C)C)cc(=O)n2cc(-c3ccc(Cl)cc3)nc12` [Compound 555], the IC50 was 10 to 100 nM.
Consider `CCCCCn1c(O[C@H]2CC[C@H](C(C)(C)C(=O)O)CC2)cc(=O)n2cc(-c3ccc(Cl)cc3)nc12` [Compound 556], for which the concentration for half-maximal inhibition (IC50) is 10 to 100 nM.
Take `CCCCCn1c(C2=CCC(C(=O)O)CC2)cc(=O)n2cc(-c3ccc(Cl)cc3)nc12` (stereo not drawn) [Compound 557]: the IC50 fell in the range of 10 to 100 nM.
On to `CCCCCn1c(OC)cc(=O)n2cc(-c3ccc(Cl)cc3)nc12` [Compound 558], for which the IC50 is 100 to 1000 nM.
Take `CCCCCn1c(N(CCC)C(C)=O)cc(=O)n2cc(-c3ccc(Cl)cc3)nc12` [Compound 560]: the IC50 lay in the range of 10 to 100 nM.
For the molecule `CCCCCn1c(/N=C(\C)OCCC)cc(=O)n2cc(-c3ccc(Cl)cc3)nc12` [Compound 561], the concentration for half-maximal inhibition (IC50) is over 1000 nM.
On to `CCCCCn1c(N(CCOCCOC)C(C)=O)cc(=O)n2cc(-c3ccc(Cl)cc3)nc12` [Compound 562], for which the IC50 is 100 to 1000 nM.
Turning to `CCCCCn1c(/N=C(\C)OCCCOCOC)cc(=O)n2cc(-c3ccc(Cl)cc3)nc12` [Compound 563], the IC50 lay in the range of 100 to 1000 nM.
Regarding `CCCCCn1c(N(CCCC(=O)OCC)C(C)=O)cc(=O)n2cc(-c3ccc(Cl)cc3)nc12` [Compound 564], the IC50 was 10 to 100 nM.
For `CCCCCn1c(N(Cc2ccc(C(=O)OC)cc2)C(C)=O)cc(=O)n2cc(-c3ccc(Cl)cc3)nc12` [Compound 566], the IC50 was 10 to 100 nM.
For the molecule `CCCCCn1c(/N=C(\C)OCc2ccc(C(=O)OC)cc2)cc(=O)n2cc(-c3ccc(Cl)cc3)nc12` [Compound 567], the IC50 is over 1000 nM.
In the case of `CCCCCn1c(N(Cc2ccc(C(=O)O)cc2)C(C)=O)cc(=O)n2cc(-c3ccc(Cl)cc3)nc12` [Compound 569], the IC50 is under 10 nM.
As for `CCCCCn1c(OC2CN(CCC(=O)O)C2)cc(=O)n2cc(-c3ccc(Cl)cc3)nc12` [Compound 570], the IC50 was under 10 nM.
As for `CCCCCn1c(N2CCC[C@H]2C(=O)NCC(C)C(=O)OC)cc(=O)n2cc(-c3ccc(Cl)cc3)nc12` (stereo partly drawn) [Compound 571], the figure is 100 to 1000 nM.
With `CCCCCn1c(O[C@H]2CCNC2)cc(=O)n2cc(-c3ccc(Cl)cc3)nc12` [Compound 572], the IC50 is 10 to 100 nM.
For `CCCCCn1c(O[C@H]2CCN(CC(=O)OC(C)(C)C)C2)cc(=O)n2cc(-c3ccc(Cl)cc3)nc12` [Compound 573] the value was 10 to 100 nM.
As to `CCCCCn1c(OC2CN(CC(=O)OC(C)(C)C)C2)cc(=O)n2cc(-c3ccc(Cl)cc3)nc12` [Compound 574], the IC50 was 10 to 100 nM.
For the molecule `CCCCCn1c(O[C@H]2CCN(CC(=O)O)C2)cc(=O)n2cc(-c3ccc(Cl)cc3)nc12` [Compound 575], the 50% inhibitory concentration (IC50) is 10 to 100 nM.
For the molecule `CCCCCn1c(O[C@H]2CCN(CCC(=O)O)C2)cc(=O)n2cc(-c3ccc(Cl)cc3)nc12` [Compound 576], the IC50 was 10 to 100 nM.
For the molecule `CCCCCn1c(OC2CN(CC(=O)O)C2)cc(=O)n2cc(-c3ccc(Cl)cc3)nc12` [Compound 577], the IC50 is under 10 nM.
Turning to `CCCCCn1c(O[C@H]2CCN(CCC(=O)OC(C)(C)C)C2)cc(=O)n2cc(-c3ccc(Cl)cc3)nc12` [Compound 578], the IC50 is 10 to 100 nM.
For `CCCCCn1c(N2C[C@H](F)C[C@H]2C(=O)NCCC(=O)O)cc(=O)n2cc(-c3ccc(Cl)cc3)nc12` [Compound 579] the value was 10 to 100 nM; for `CCCCCn1c(N2C[C@@H](F)C[C@H]2C(=O)NCCC(=O)O)cc(=O)n2cc(-c3ccc(Cl)cc3)nc12` [Compound 580], under 10 nM.
On to `CCCCCn1c(N2C[C@H](O)C[C@H]2C(=O)NCCC(=O)O)cc(=O)n2cc(-c3ccc(Cl)cc3)nc12` [Compound 581], for which the IC50 was under 10 nM.
For `CCCCCn1c(N2C[C@@H](O)C[C@H]2C(=O)NCCC(=O)O)cc(=O)n2cc(-c3ccc(Cl)cc3)nc12` [Compound 582] the value was under 10 nM; for `CCCCCn1c(N2C[C@H](F)C[C@H]2C(=O)NC(C)(C)CC(=O)O)cc(=O)n2cc(-c3ccc(Cl)cc3)nc12` [Compound 583], under 10 nM; for `CCCCCn1c(N2C[C@@H](F)C[C@H]2C(=O)NC(C)(C)CC(=O)O)cc(=O)n2cc(-c3ccc(Cl)cc3)nc12` [Compound 584], under 10 nM.
`CCCCCn1c(N2C[C@H](O)C[C@H]2C(=O)NC(C)(C)CC(=O)O)cc(=O)n2cc(-c3ccc(Cl)cc3)nc12` [Compound 585]: the half-maximal inhibitory concentration (IC50) was under 10 nM.
With `CCCCCn1c(N2C[C@@H](O)C[C@H]2C(=O)NC(C)(C)CC(=O)O)cc(=O)n2cc(-c3ccc(Cl)cc3)nc12` [Compound 586], the IC50 was under 10 nM.
As to `CCCCCn1c(N2C[C@H](F)C[C@H]2C(=O)O)cc(=O)n2cc(-c3ccc(Cl)cc3)nc12` [Compound 587], the IC50 is over 1000 nM.
As for `CCCCCn1c(N2C[C@@H](F)C[C@H]2C(=O)O)cc(=O)n2cc(-c3ccc(Cl)cc3)nc12` [Compound 588], the figure is 100 to 1000 nM; as for `CCCCCn1c(N2C[C@H](O)C[C@H]2C(=O)O)cc(=O)n2cc(-c3ccc(Cl)cc3)nc12` [Compound 589], over 1000 nM; as for `CCCCCn1c(N2C[C@@H](O)C[C@H]2C(=O)O)cc(=O)n2cc(-c3ccc(Cl)cc3)nc12` [Compound 590], 100 to 1000 nM.
For `CCCCCn1c(N2C[C@H](F)C[C@H]2C(=O)NCCC(=O)OCC)cc(=O)n2cc(-c3ccc(Cl)cc3)nc12` [Compound 591] the value was 100 to 1000 nM; for `CCCCCn1c(N2C[C@@H](F)C[C@H]2C(=O)NCCC(=O)OCC)cc(=O)n2cc(-c3ccc(Cl)cc3)nc12` [Compound 592], 10 to 100 nM.
With `CCCCCn1c(N2C[C@H](O)C[C@H]2C(=O)NCCC(=O)OCC)cc(=O)n2cc(-c3ccc(Cl)cc3)nc12` [Compound 593], the concentration for half-maximal inhibition (IC50) lay within 10 to 100 nM.
Take `CCCCCn1c(N2C[C@@H](O)C[C@H]2C(=O)NCCC(=O)OCC)cc(=O)n2cc(-c3ccc(Cl)cc3)nc12` [Compound 594]: the 50% inhibitory concentration (IC50) fell in the range of 10 to 100 nM.
For `CCCCCn1c(N2C[C@H](F)C[C@H]2C(=O)NC(C)(C)CC(=O)OCC)cc(=O)n2cc(-c3ccc(Cl)cc3)nc12` [Compound 595] the value was 100 to 1000 nM.
In the case of `CCCCCn1c(N2C[C@@H](F)C[C@H]2C(=O)NC(C)(C)CC(=O)OCC)cc(=O)n2cc(-c3ccc(Cl)cc3)nc12` [Compound 596], the IC50 is 10 to 100 nM.
For `CCCCCn1c(N2C[C@H](O)C[C@H]2C(=O)NC(C)(C)CC(=O)OCC)cc(=O)n2cc(-c3ccc(Cl)cc3)nc12` [Compound 597] the value was 10 to 100 nM; for `CCCCCn1c(N2C[C@@H](O)C[C@H]2C(=O)NC(C)(C)CC(=O)OCC)cc(=O)n2cc(-c3ccc(Cl)cc3)nc12` [Compound 598], 10 to 100 nM; for `CCCCCn1c(N2CCC[C@H]2CC(=O)O)cc(=O)n2cc(-c3ccc(Cl)cc3)nc12` [Compound 599], 10 to 100 nM.
For `CCCCCn1c(N2CCC[C@H](C(=O)O)C2)cc(=O)n2cc(-c3ccc(Cl)cc3)nc12` [Compound 600] the value was under 10 nM; for `CCCCCn1c(NCCC(=O)O)cc(=O)n2cc(-c3ccc(Cl)cc3)nc12` [Compound 601], 100 to 1000 nM; for `CCCCCn1c(N(C)CC(=O)O)cc(=O)n2cc(-c3ccc(Cl)cc3)nc12` [Compound 602], 100 to 1000 nM.
In the case of `CCCCCn1c(NCC(=O)NCC(=O)O)cc(=O)n2cc(-c3ccc(Cl)cc3)nc12` [Compound 603], the IC50 was 100 to 1000 nM.
For `CCCCCn1c(N2CCCC[C@H]2C(=O)O)cc(=O)n2cc(-c3ccc(Cl)cc3)nc12` [Compound 604] the value was 100 to 1000 nM; for `CCCCCn1c(N2CCC[C@@H]2CC(=O)O)cc(=O)n2cc(-c3ccc(Cl)cc3)nc12` [Compound 605], 100 to 1000 nM; for `CCCCCn1c(N2CCC[C@@]2(C)C(=O)O)cc(=O)n2cc(-c3ccc(Cl)cc3)nc12` [Compound 606], over 1000 nM.
As for `CCCCCn1c(NCCCC(=O)O)cc(=O)n2cc(-c3ccc(Cl)cc3)nc12` [Compound 607], the figure is 10 to 100 nM.
Consider `CCCCCn1c(N2CCC[C@@H](C(=O)O)C2)cc(=O)n2cc(-c3ccc(Cl)cc3)nc12` [Compound 608], for which the concentration for half-maximal inhibition (IC50) lay in the range of 10 to 100 nM.
`CCCCCn1c(N(C)CC(=O)NCC(=O)O)cc(=O)n2cc(-c3ccc(Cl)cc3)nc12` [Compound 609]: the IC50 is 10 to 100 nM.
